In ChEMBL document CHEMBL1143651, “Design and synthesis of 6-anilinoindazoles as selective inhibitors of c-Jun N-terminal kinase-3” (Bioorg Med Chem Lett, 2005) one finds IC50 data, which are given here for 10 compounds.

Broadly, the IC50 is the midpoint of a concentration-inhibition curve. Low values mean inhibition by little substance, high ones a need for much substance.

Test [1] concerns the target Mitogen-activated protein kinase 8 (Homo sapiens, UniProt P45983). Nature of the test: Inhibitory concentration against c-Jun N-terminal kinase 1.
For test [2], the target named is Mitogen-activated protein kinase 10 (Homo sapiens, UniProt P53779). Nature of the test: Inhibitory concentration against c-Jun N-terminal kinase 3.
Sequence of Mitogen-activated protein kinase 10 (P53779 whole entry): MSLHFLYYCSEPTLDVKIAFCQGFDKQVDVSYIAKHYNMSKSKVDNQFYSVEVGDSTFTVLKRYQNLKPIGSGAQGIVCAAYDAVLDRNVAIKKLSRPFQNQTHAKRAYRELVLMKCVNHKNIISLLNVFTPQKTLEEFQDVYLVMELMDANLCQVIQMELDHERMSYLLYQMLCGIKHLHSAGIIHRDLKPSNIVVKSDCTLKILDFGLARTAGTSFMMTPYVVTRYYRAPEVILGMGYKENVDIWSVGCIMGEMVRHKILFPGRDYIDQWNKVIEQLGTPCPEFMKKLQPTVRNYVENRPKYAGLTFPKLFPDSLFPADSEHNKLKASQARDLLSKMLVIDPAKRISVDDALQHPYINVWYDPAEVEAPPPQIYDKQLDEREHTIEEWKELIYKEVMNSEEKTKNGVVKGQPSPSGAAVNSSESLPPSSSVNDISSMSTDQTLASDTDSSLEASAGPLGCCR
The target of test [3] is Mitogen-activated protein kinase 14 (Homo sapiens, UniProt Q16539). Nature of the test: Inhibitory concentration against Mitogen-activated protein kinase p38 alpha.
Sequence of Mitogen-activated protein kinase 14 (Q16539 whole entry): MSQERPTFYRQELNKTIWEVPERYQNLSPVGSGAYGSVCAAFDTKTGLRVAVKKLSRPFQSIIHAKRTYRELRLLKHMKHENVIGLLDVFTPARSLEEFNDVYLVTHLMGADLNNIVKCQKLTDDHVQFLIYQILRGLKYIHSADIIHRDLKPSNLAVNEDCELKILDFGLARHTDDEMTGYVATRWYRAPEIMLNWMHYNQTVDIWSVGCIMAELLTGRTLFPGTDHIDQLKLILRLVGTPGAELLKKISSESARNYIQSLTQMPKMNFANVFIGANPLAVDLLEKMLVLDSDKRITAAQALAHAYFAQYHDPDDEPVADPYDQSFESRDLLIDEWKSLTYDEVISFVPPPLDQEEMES

A value given as a limit tells only on which side of the number the result lay.

Sequence of Mitogen-activated protein kinase 8 (P45983 whole entry): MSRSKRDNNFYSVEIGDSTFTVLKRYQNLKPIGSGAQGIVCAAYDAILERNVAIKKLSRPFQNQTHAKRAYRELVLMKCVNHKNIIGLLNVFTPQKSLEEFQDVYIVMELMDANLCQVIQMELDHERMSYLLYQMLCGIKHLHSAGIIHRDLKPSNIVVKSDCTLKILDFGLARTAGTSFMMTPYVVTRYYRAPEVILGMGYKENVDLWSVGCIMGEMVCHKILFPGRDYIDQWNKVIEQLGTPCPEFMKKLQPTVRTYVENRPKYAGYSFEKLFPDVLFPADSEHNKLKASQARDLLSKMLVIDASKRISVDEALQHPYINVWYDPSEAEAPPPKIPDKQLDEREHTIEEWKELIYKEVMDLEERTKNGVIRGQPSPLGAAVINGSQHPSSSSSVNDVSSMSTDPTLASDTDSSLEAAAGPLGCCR

For `O=C(NC1CCNCC1)c1cccc(-c2n[nH]c3cc(Nc4ccccc4Cl)ccc23)c1`, the IC50 was determined as 71 nM in test [1], 1.4 nM in test [2] and 4.4 nM in test [3].
As to `O=C(O)c1cccc(-c2n[nH]c3cc(Nc4ccccc4Cl)ccc23)c1`, the IC50 in test [1] is 61 nM; in test [2] it was 5.3 nM; in test [3], 24 nM.
`O=C(O)c1ccc(-c2n[nH]c3cc(Nc4ccccc4Cl)ccc23)cc1`: the IC50 in test [1] was 246 nM; in test [2] it was 32 nM; in test [3], 13 nM.
For `O=C(NCCCN1CCOCC1)c1cccc(-c2n[nH]c3cc(Nc4ccccc4Cl)ccc23)c1` the same measures were 228 nM, 3.4 nM and 3.7 nM.
`CN(C)CCNC(=O)c1cccc(-c2n[nH]c3cc(Nc4ccccc4Cl)ccc23)c1`: the values for the half-maximal inhibitory concentration (IC50) in test [1], in test [2] and in test [3] were 698 nM, 21 nM and 16 nM, respectively.
For `NC(=O)c1cccc(-c2n[nH]c3cc(Nc4ccccc4Cl)ccc23)c1` the same measures were 81 nM, 3.3 nM and 3.2 nM.
For `COc1ccccc1Nc1ccc2c(-c3ccccc3)n[nH]c2c1` the same measures were 1600 nM, 202 nM and 46 nM.
On to `c1ccc(Nc2ccc3c(-c4ccccc4)n[nH]c3c2)cc1`, for which the IC50 in test [1] was above 10000 nM; in test [2], 48 nM; in test [3] it was 30 nM.
Turning to `CN(C)CCNC(=O)c1ccc(-c2n[nH]c3cc(Nc4ccccc4Cl)ccc23)cc1`, the values for the IC50 in test [1], in test [2] and in test [3] were 45 nM, 1.9 nM and 8.7 nM, respectively.
Regarding `Clc1ccccc1Nc1ccc2c(-c3ccccc3)n[nH]c2c1`, the results for the IC50 in test [1], in test [2] and in test [3] were 5350 nM, 30 nM and 18 nM, respectively.
